Measurements taken from ChEMBL document CHEMBL1134154, “1-Alkyl-3-amino-5-aryl-1H-[1,2,4]triazoles: novel synthesis via cyclization of N-acyl-S-methylisothioureas with alkylhydrazines and their potent corticotropin-releasing factor-1 (CRF(1)) receptor antagonist activities” (Bioorg Med Chem Lett, 2001).

The compounds below were run against T1, Corticotropin-releasing factor receptor 1 (Homo sapiens) (UniProt P34998) (assay: Binding affinity to cloned human Corticotropin releasing factor receptor 1 expressed in CHO cells using [125I]o-CRF as radioligand). Conditions: concentration not given here; call rule not given here.
T1 sequence (whole entry): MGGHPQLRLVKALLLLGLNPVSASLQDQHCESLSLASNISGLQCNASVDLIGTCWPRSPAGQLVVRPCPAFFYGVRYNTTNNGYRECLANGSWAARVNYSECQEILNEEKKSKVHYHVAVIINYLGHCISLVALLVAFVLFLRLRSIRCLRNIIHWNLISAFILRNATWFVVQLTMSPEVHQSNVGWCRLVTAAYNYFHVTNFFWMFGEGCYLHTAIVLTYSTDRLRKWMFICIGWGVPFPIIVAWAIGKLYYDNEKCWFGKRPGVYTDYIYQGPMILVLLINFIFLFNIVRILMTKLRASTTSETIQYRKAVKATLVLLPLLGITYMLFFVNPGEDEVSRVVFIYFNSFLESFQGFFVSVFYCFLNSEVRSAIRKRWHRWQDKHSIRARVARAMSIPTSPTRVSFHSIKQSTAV
Type: cell-based
`C=CCn1nc(N(CCC)C(C2CC2)C2CC2)nc1-c1ccc(Cl)cc1Cl` was tested, and the inhibition was 77%.

What follows are compounds tested against T2, Corticotropin-releasing factor receptor 1 (Homo sapiens, UniProt P34998) (assay: Binding affinity to cloned human CRF1 receptor expressed in CHO cells using [125I]o-CRF as radioligand at 10 uM concentration; In activie). Conditions: not given.
T2 sequence (P34998 whole entry): T1 sequence (whole entry)
Type: cell-based
`CCCN(CCC)c1nc(-c2ccc(Cl)cc2Cl)n(CCO)n1` was tested, and the Ki was “Not Active”.

These compounds were tested against T2, Corticotropin-releasing factor receptor 1 (assay: Tested for in vivo activity and binding affinity to human Corticotropin releasing factor receptor 1; In activie). Conditions: not given.
For `CCCCN(CC)c1nc(C)nc2c1c(C)cn2-c1c(C)cc(C)cc1C` [CP-154526], the Ki was “Not Active”.
For `CCCN(CC1CC1)c1nc(C)nc(Nc2c(Cl)cc(Cl)cc2Cl)c1Cl`, the Ki was “Not Active”.

The compounds below were run against T2, Corticotropin-releasing factor receptor 1 (assay: Binding affinity to cloned human Corticotropin releasing factor receptor 1 expressed in CHO cells using [125I]o-CRF as radioligand at 10 uM concentration; In activie). Conditions: not given.
Type: cell-based
`CCCN(CC1CC1)c1nc(-c2cccc3cc(OC)ccc23)n(C)n1` was tested, and the Ki was “Not Active”.
`CCCN(CCC)c1n[nH]c(-c2ccc(Cl)cc2Cl)n1` was tested, and the Ki was “Not Active”.
`CCCN(CC1CC1)c1n[nH]c(-c2cccc3cc(OC)ccc23)n1` was tested, and the Ki was “Not Active”.

The compounds below were run against T2, Corticotropin-releasing factor receptor 1 (assay: Inhibition of [125I]o-CRF binding to human Corticotropin releasing factor receptor 1 expressed in CHO cells.). Conditions: not given.
Type: cell-based
With `CCCN(c1nc(-c2ccc(Cl)cc2Cl)nn1C)C(C1CC1)C1CC1` the Ki was greater than 10 µM.
Work on `CCCN(c1nc(-c2ccc(Cl)cc2C)n(C)n1)C(C1CC1)C1CC1` yielded a Ki of 0.022 µM.
Work on `C=CCn1nc(N(CCC)C(C2CC2)C2CC2)nc1-c1c(C)cc(C)cc1C` yielded a Ki of 2.2 µM.
`CCCN(c1nc(-c2c(C)cc(C)cc2C)n(CC)n1)C(C1CC1)C1CC1` showed a Ki of 0.31 µM.
For `CCCN(c1nc(-c2ccc(Br)cc2C)n(C)n1)C(C1CC1)C1CC1`, the Ki was 0.01 µM.
For `CCCN(CCC)c1nc(-c2ccc(Cl)cc2Cl)n(CCO)n1`, the Ki was 0.014 µM.
`CCCN(c1n[nH]c(-c2ccc(Cl)cc2Cl)n1)C(C1CC1)C1CC1` was tested, and the Ki was 2.4 µM.
`CCCN(c1nc(-c2ccc(Cl)cc2OC)n(C)n1)C(C1CC1)C1CC1` gave a Ki of 0.026 µM.
`CCCN(CCC)c1nc(-c2ccc(Cl)cc2Cl)n(C)n1` showed a Ki of 2.6 µM.
`CCCN(c1nc(-c2ccc(Cl)cc2Cl)n(CC)n1)C(C1CC1)C1CC1` gave a Ki of 0.08 µM.
Work on `CCCN(CC1CC1)c1nc(-c2ccc(Cl)cc2Cl)n(C)n1` yielded a Ki greater than 10 µM.
`CCCN(c1nc(-c2ccc(Cl)cc2)n(C)n1)C(C1CC1)C1CC1` showed a Ki of 0.033 µM.
For `CCCN(c1nc(-c2cc(F)c(Cl)cc2Cl)n(C)n1)C(C1CC1)C1CC1`, the Ki was 0.015 µM.
Work on `CCCN(c1nc(-c2c(C)cc(C)cc2C)n(C)n1)C(C1CC1)C1CC1` yielded a Ki of 0.12 µM.
`CCCN(c1nc(-c2ccc(Cl)cc2Cl)n(C)n1)C(C1CC1)C1CC1` gave a Ki of 0.009 µM.
